Measured values: patent US4417052A, “Phenyl-lower-alkyl piperidines and pyrrolidines” (Sterling Drug Inc., priority 1981, dated 1983)
Counter-ions that a name gives are not always drawn. Like-named read-outs stand apart in the source and are kept apart here.

Assays:
[1] = system: carrageenin-induced foot edema; assay: inhibition of carrageenin-induced foot edema test (C.E.); format: in vivo; settings: oral; for inhibition in vivo at 20 µmol/kg: dose 0.02 millimoles/kg; for inhibition in vivo at 4 µmol/kg: dose 0.004 millimoles/kg; for C.E. percent inhibition (Table B): formula V amides
Experimental: (§1) Anti-inflammatory activity was determined using (1) the inhibition of carrageenin-induced foot edema test essentially described by Winter et al., Proc. Soc. Exp. Biol. and Med. 111, 554 (1962) as modified by Van Arman et al., J. Pharmacol. Exptl. Therap. 150, 328 (1965) and (2) a modification of the inhibition of adjuvant-induced arthritis test described by Pierson, J. Chronic Diseases 16, 863 (1963) and Glenn et al., Am. J. Vet. Res. 26, 1180 (1965).
(§2) The N-{2-,3- and 4-[R1 -(phenyl)-C(=X)]-phenyl-lower-alkyl}amines of formulas I, Ia and Ib of the invention have been tested in the carrageenin edema (CE) and adjuvant arthritis (AA) tests and found to have anti-inflammatory activity. For comparative purposes, data obtained in the carrageenin edema test on the reference compound (designated "Ref."), 4[(3-benzoylphenyl)methyl]morpholine, disclosed in French Patent 1,549,342, are also given. All data were obtained on oral administration.

[2] = system: adjuvant-induced arthritis; assay: inhibition of adjuvant-induced arthritis test (A.A.); format: in vivo; settings: oral; for inhibition in vivo at 5 µmol/kg: dose 0.005 millimoles/kg; for inhibition in vivo at 20 µmol/kg: dose 0.02 millimoles/kg; for A.A. percent inhibition (Table B): formula V amides
Experimental: as §1, §2

[3] = system: acetylcholine-induced abdominal constriction; assay: acetylcholine-induced abdominal constriction test (Ach); format: in vivo, mice; settings: for ED50: Mus musculus, read-out: Ach ED50
From the text: J. Pharmacol. Chemotherap. 32, 295 (1968); a modification of the anti-bradykinin test, which is also a primary analgesic screening procedure, described by Berkowitz et al., J. Pharmacol. Exp. Therap. 177, 500-508 (1971), Blane et al., J. Pharm. Pharmacol. 19, 367-373 (1967), Botha et al., Eur. J. Pharmacol. 6, 312-321 (1969) and Deffenu et al., J. Pharm. Pharmacol. 18, 135 (1966); the phenyl-p-quinone-induced writhing test, also a primary analgesic screening test, designed to measure the ability of a test agent to prevent phenyl-p-quinone-induced writhing in mice, described by Pearl and Harris, J. Pharmacol. Exptl. Therap. 154, 319-323 (1966); the rat tail flick radiant thermal heat analgesic (agonist) test described by D'Amour and Smith, J. Pharmacol. Exptl. Therap. 72, 74 (1941) as modified by Bass and VanderBrook, J. Am. Pharm. Assoc. Sci. Ed. 41, 569 (1956); and the phenazocine antagonist test, which is designed to measure the ability of a test agent to antagonize the effect of phenazocine in the above-indicated rat tail flick response test, described by Harris and Pierson, J. Pharmacol. Exptl. Therap. 143, 141 (1964).
The ED50 is the calculated Effective Dose in 50% of the test animals. The abbreviations s.c., p.o. and i.p. stand for subcutaneous, peroral and intraperitoneal routes of administration, respectively. The compounds are identified by the Example numbers above where their preparations are described.

[4] = read-out: C.E. percent inhibition
[5] = dose 0.08 millimoles/kg, read-out: C.E. percent inhibition
[6] = dose 0.324 millimoles/kg, read-out: C.E. percent inhibition
[7] = read-out: A.A. percent inhibition
[8] = dose 0.08 millimoles/kg, read-out: A.A. percent inhibition
[9] = dose 0.324 millimoles/kg, read-out: A.A. percent inhibition

`CC(CN1CCCCC1CC1CCCCC1)c1cccc(C(O)c2ccccc2)c1` (stereo not drawn) [Example 1, 2-cyclohexylmethyl-1-{2-[3-(α-hydroxybenzyl)phenyl]propyl}piperidine] showed an inhibition in vivo at 5 µmol/kg ([1]; dose 0.005 millimoles/kg, read-out: C.E. percent inhibition) of 13%, an inhibition in vivo at 20 µmol/kg [1, 4] of 23% and an inhibition in vivo at 80 µmol/kg [1, 5] of 60%. For the same compound, the inhibition in vivo at 324 µmol/kg [1, 6] was 73%, the inhibition in vivo at 5 µmol/kg [2, 7] was 56% and the inhibition in vivo at 20 µmol/kg [2, 7] was 73%. For the same compound, the inhibition in vivo at 80 µmol/kg [2, 8] was 91%, the ED50 ([3]; po) was 71 mg/kg and the “Ach percent inhibition of writhing” value ([3]; dose 25, s.c.) was 7%. For the same compound, the “Ach percent inhibition of writhing” value ([3]; dose 75, s.c.) was 33%.
Work on `CC(CN1CCCCC1C1CCCCC1)c1cccc(C(=O)c2ccccc2)c1` (stereo not shown) [Example 7E, 2-Cyclohexyl-1-[2-(3-benzoylphenyl)propyl]piperidine] yielded an inhibition in vivo at 80 µmol/kg [1, 5] of 33%, an inhibition in vivo at 324 µmol/kg [1, 6] of 58% and an inhibition in vivo at 80 µmol/kg [2, 8] of 92%. The “Ach percent inhibition of writhing” value ([3]; dose 25, s.c.) was 46% and the “Ach percent inhibition of writhing” value ([3]; dose 75, s.c.) was 93%.
With `CC(CN1CCCCC1CCC1CCCCC1)c1cccc(C(=O)c2ccccc2)c1` (stereo not shown) [Example 7F, 2-(2-Cyclohexylethyl)-1-[2-(3-benzoylphenyl)propyl]piperidine] the inhibition in vivo at 80 µmol/kg [1, 5] was 33%, the inhibition in vivo at 324 µmol/kg [1, 6] was 51% and the inhibition in vivo at 80 µmol/kg [2, 8] was 91%. For the same compound, the “toxicity” value ([2]; dose 0.16 millimoles/kg) was “Toxic”, the “Ach percent inhibition of writhing” value ([3]; dose 25, s.c.) was 7% and the “Ach percent inhibition of writhing” value ([3]; dose 75, s.c.) was 33%.
`CC(CN1CCCCC1CC1CCCCC1)c1cccc(C(=NO)c2ccccc2)c1` (stereo not shown) [Example 15, 2-cyclohexylmethyl-1-[2-(3-benzoylphenyl)propyl]piperidine oxime] was tested, and the inhibition in vivo at 4 µmol/kg [1, 4] was 16%, the inhibition in vivo at 20 µmol/kg [1, 4] was 43% and the inhibition in vivo at 20 µmol/kg [2, 7] was 92%. For the same compound, the inhibition in vivo at 80 µmol/kg [2, 8] was 91%.
In the case of `CC(CN1CCCCC1CC1CCCCC1)c1cccc(C(N)c2ccccc2)c1` (stereo not drawn) [Example 16, 2-cyclohexylmethyl-1-{2-[3-(α-aminobenzyl)phenyl]propyl}piperidine dihydrochloride], the inhibition in vivo at 4 µmol/kg [1, 4] was 16%, the inhibition in vivo at 20 µmol/kg [1, 4] was 31% and the inhibition in vivo at 5 µmol/kg [2, 7] was 80%. For the same compound, the inhibition in vivo at 20 µmol/kg [2, 7] was 89% and the inhibition in vivo at 80 µmol/kg [2, 8] was 108%.
`NC(c1ccccc1)c1cccc(CN2CCOCC2)c1` (stereo not drawn) [Example 16B, 4-{[3-(α-Aminobenzyl)phenyl]methyl}morpholine dihydrochloride monohydrate] gave an inhibition in vivo at 80 µmol/kg [1, 5] of 0%, an inhibition in vivo at 324 µmol/kg [1, 6] of 36% and an inhibition in vivo at 324 µmol/kg [2, 9] of 0%.
`CC1CCCC(C)N1CCc1ccc(O)c(C(=O)c2ccccc2)c1` (stereo not shown) [Example 19, 2,6-dimethyl-1-[2-(3-benzoyl-4-hydroxyphenyl)ethyl]piperidine hydrochloride] gave an inhibition in vivo at 20 µmol/kg [1, 4] of 5%, an inhibition in vivo at 80 µmol/kg [1, 5] of 0% and an inhibition in vivo at 324 µmol/kg [1, 6] of 23%. For the same compound, the inhibition in vivo at 160 µmol/kg ([2]; dose 0.16 millimoles/kg, read-out: A.A. percent inhibition) was 1%.
In the case of `CC(CN1CCCCC1CC1CCCCC1)c1cccc(C(=O)c2ccc(Cl)cc2)c1` (stereo not shown) [Example 20, 2-cyclohexylmethyl-1-{2-[3-(4-chlorobenzoyl)phenyl]propyl}piperidine], the inhibition in vivo at 4 µmol/kg [1, 4] was 16%, the inhibition in vivo at 20 µmol/kg [1, 4] was 52% and the inhibition in vivo at 5 µmol/kg [2, 7] was 63%. The inhibition in vivo at 20 µmol/kg [2, 7] was 90% and the “toxicity” value ([2]; dose 0.08 millimoles/kg) was “Toxic”.
For `CC(CN1CCCCC1CC1CCCCC1)c1cccc(C(=O)c2ccccc2Cl)c1` (stereo not shown) [Example 20D, 2-Cyclohexylmethyl-1-{2-[3-(2-chlorobenzoyl)phenyl]propyl}piperidine], the inhibition in vivo at 4 µmol/kg [1, 4] was 0%, the inhibition in vivo at 20 µmol/kg [1, 4] was 36% and the inhibition in vivo at 5 µmol/kg [2, 7] was 35%. For the same compound, the inhibition in vivo at 20 µmol/kg [2, 7] was 54% and the inhibition in vivo at 80 µmol/kg [2, 8] was 79%.
In the case of `CC(CN1CCOCC1)c1ccc(C(=O)c2ccccc2)cc1` (stereo not shown) [Example 24A, 4-[2-(4-benzoylphenyl)propyl]morpholine hydrochloride], the inhibition in vivo at 80 µmol/kg [1, 5] was 44%, the inhibition in vivo at 324 µmol/kg [1, 6] was 56% and the inhibition in vivo at 324 µmol/kg [2, 9] was 78%.
In the case of `CC(CN1CCC2(CC1)OCCO2)c1ccc(C(=O)c2ccccc2)cc1.Cl` (stereo not shown) [Example 24B, 8-[2-(4-benzoylphenyl)propyl]1,4-dioxa-8-azaspiro[4,5]decane hydrochloride], the inhibition in vivo at 80 µmol/kg [1, 5] was 38%, the inhibition in vivo at 324 µmol/kg [1, 6] was 50% and the inhibition in vivo at 80 µmol/kg [2, 8] was 30%. For the same compound, the “toxicity” value ([2]; dose 0.324 millimoles/kg) was “Toxic”.
In the case of `CC(CN1CCNCC1)c1ccc(C(=O)c2ccccc2)cc1.Cl.Cl` (stereo not shown) [Example 24C, 1-[2-(4-benzoylphenyl)propyl]piperazine dihydrochloride], the inhibition in vivo at 80 µmol/kg [1, 5] was 16%, the inhibition in vivo at 324 µmol/kg [1, 6] was 41% and the inhibition in vivo at 324 µmol/kg [2, 9] was 63%. It also gave an ED50 ([3]; po) of 20 mg/kg.
`CC(CN1CCSCC1)c1ccc(C(=O)c2ccccc2)cc1` (stereo not shown) [Example 24D, 4-[2-(4-benzoylphenyl)propy]thiomorpholine hydrochloride] showed an inhibition in vivo at 80 µmol/kg [1, 5] of 61%, an inhibition in vivo at 324 µmol/kg [1, 6] of 70% and an inhibition in vivo at 80 µmol/kg [2, 8] of 28%. It also gave an ED50 ([3]; po) of 50 mg/kg.
Work on `CC(CN1CCC2(CC1)SCCS2)c1ccc(C(=O)c2ccccc2)cc1.Cl` (stereo not shown) [Example 24E, 8-[2-(4-benzoylphenyl)propyl]-1,4-dithia-8-azaspiro[4,5]decane hydrochloride] yielded an ED50 ([3]; po) of 39 mg/kg.
`CC(CN1CCC2(CC1)OCCS2)c1ccc(C(=O)c2ccccc2)cc1.Cl` (stereo not shown) [Example 24F, 8-[2-(4-benzoylphenyl)propyl]-1-oxa-4-thia-8-azaspiro[4,5]decane hydrochloride] gave an ED50 ([3]; po) of 18 mg/kg.
`CC(CN1CCNCC1)c1cccc(C(=O)c2ccccc2)c1.Cl.Cl` (stereo not shown) [Example 24G, 1-[2-(3-benzoylphenyl)propyl]piperazine dihydrochloride] was tested, and the inhibition in vivo at 80 µmol/kg [1, 5] was 32%, the inhibition in vivo at 324 µmol/kg [1, 6] was 52% and the ED50 ([3]; po) was 30 mg/kg. The ED50 ([3]; sc) was 5.6 mg/kg.
Compound `CC(C)(CN1CCOCC1)c1cccc(C(=O)c2ccccc2)c1.Cl` [Example 24H, 4-[2,2-dimethyl-2-(3-benzoylphenyl)ethyl]morpholine hydrochloride] has an inhibition in vivo at 80 µmol/kg [1, 5] of 0%, an inhibition in vivo at 324 µmol/kg [1, 6] of 22% and an inhibition in vivo at 324 µmol/kg [2, 9] of 8%. For the same compound, the “Ach percent inhibition of writhing” value ([3]; dose 25, s.c.) was 7%, the “Ach percent inhibition of writhing” value ([3]; dose 50, s.c.) was 13% and the “Ach percent inhibition of writhing” value ([3]; dose 150, s.c.) was 73%.
Work on `CC(C)(CN1CCC2(CC1)OCCO2)c1cccc(C(=O)c2ccccc2)c1.Cl` [Example 24J, 8-[2,2-dimethyl-2-(3-benzoylphenyl)ethyl]-1,4-dioxa-8-azaspiro[4,5]decane hydrochloride] yielded an inhibition in vivo at 80 µmol/kg [1, 5] of 6%, an inhibition in vivo at 324 µmol/kg [1, 6] of 8% and an inhibition in vivo at 324 µmol/kg [2, 9] of 36%. For the same compound, the “Ach percent inhibition of writhing” value ([3]; dose 25, s.c.) was 33%, the “Ach percent inhibition of writhing” value ([3]; dose 50, p.o.) was 27% and the “Ach percent inhibition of writhing” value ([3]; dose 150, p.o.) was 53%.
`CC(C)(CN1CCOCC1)c1ccc(C(=O)c2ccccc2)cc1.Cl` [Example 24K, 4-[2,2-dimethyl-2-(4-benzoylphenyl)ethyl]morpholine hydrochloride] was tested, and the inhibition in vivo at 80 µmol/kg [1, 5] was 19%, the inhibition in vivo at 324 µmol/kg [1, 6] was 60% and the inhibition in vivo at 324 µmol/kg [2, 9] was 7%. The ED50 ([3]; po) was 38 mg/kg.
For `CC(C)(CN1CCC2(CC1)OCCO2)c1ccc(C(=O)c2ccccc2)cc1.Cl` [Example 24L, 8-[2,2-dimethyl-2-(4-benzoylphenyl)ethyl]-1,4-dioxa-8-azaspiro[4,5]decane hydrochloride], the inhibition in vivo at 80 µmol/kg [1, 5] was 46%, the inhibition in vivo at 324 µmol/kg [1, 6] was 70% and the inhibition in vivo at 80 µmol/kg [2, 8] was 24%. The ED50 ([3]; po) was 60 mg/kg.
With `CC(C(=O)N1CCN(C2CCCCC2)CC1)c1cccc(Cc2ccccc2)c1.Cl` (stereo not drawn) [Example 25, 4-cyclohexyl-1-[α-(3-benzylphenyl)propionyl]piperazine hydrochloride] the “C.E. percent inhibition (Table B)” value ([1]; dose 0.08 millimoles/kg) was 0%, the “C.E. percent inhibition (Table B)” value ([1]; dose 0.324 millimoles/kg) was 45% and the “A.A. percent inhibition (Table B)” value ([2]; dose 0.162 millimoles/kg) was 79%.
For `CC(C(=O)N1CCN(C2CCCCCC2)CC1)c1cccc(Cc2ccccc2)c1.Cl` (stereo not drawn) [Example 25B, 4-Cycloheptyl-1-[α-(3-benzylphenyl)propionyl]piperazine hydrochloride], the “C.E. percent inhibition (Table B)” value ([1]; dose 0.08 millimoles/kg) was 25%, the “C.E. percent inhibition (Table B)” value ([1]; dose 0.324 millimoles/kg) was 44% and the “A.A. percent inhibition (Table B)” value ([2]; dose 0.324 millimoles/kg) was 78%.
